Laboratory results from US5719152A, “Tricyclic quinoxalinedione derivatives” (Sumitomo Pharmaceuticals Co., Ltd., priority 1993, dated 1998).

Legend:
NMDA-induced seizure = NMDA-induced seizure model; type: in vivo; conditions: Mus musculus, ip, 0.5 h; mice; test compound intraperitoneal 30 min before NMDA (5 nmol) i.c.v.; ten mice; read-out: ED50, inhibition of NMDA-induced tonic seizures
Protocol: The compounds of the present invention attenuated strongly NMDA-induced seizure under systemic administrations in the following in vivo model.
NMDA-induced seizure model
Thirty min later following intraperitoneal administration of the test compound (0.3~30 mg/kg) into each of ten mice tested, NMDA (5 nmol) was administered intracerebroventricularly (i.c.v.). […] The activity of the test compound may be shown by the ED50 value.

[1] = system: strychnine-insensitive glycine modulatory site of NMDA (N-methyl D-aspartate) receptors; conditions: 0.1 mM; rat brain synaptic membrane preparation
Protocol: The activities of the compounds were measured by [^3 H] DCKA and [^3 H] glycine binding inhibition studies as illustrated below.
[^3 H] glycine binding studies
A crude rat brain synaptic membrane preparation was washed three times by centrifugation at 50,000×g for 30 min with 50 mM tris acetate (pH 7.4). The pellets obtained were suspended in 0.23M sucrose solution and stored at -80° C. For binding studies, the frozen suspension was thawed, treated with 0.08% triton X-100 at 2° C. for 10 min, and washed twice by the centrifugation as mentioned above. The synaptic membrane thus prepared (ca. 150~200 μg of protein) was incubated with 10 nM [^3 H] glycine (1.11 TBq/mmol) and the test compound (10 ng/mL~0.1 ng/mL) at 2° C. for 10 min in 50 mM tris acetate (pH 7.4). The incubation was terminated by suction filtration using Whatman GF/B glass filter. The radioactivities bound to the membrane on the filter was measured by scintillation counting. Non-specific binding was calculated by the radioactivities measured under the incubations in the presence of 0.1 mM D-serine.

Row | SMILES | ED50 (NMDA-induced seizure) [mg/kg] | inhibition of [3H] glycine binding [1]
1 | Cl.NCc1ccc(NC(=O)C[C@@H]2CCc3cc(Cl)cc4[nH]c(=O)c(=O)n2c34)c(CC(=O)O)c1 [Example 11, (S)-9-Chloro-5-[p-aminomethyl-o-(carboxymethyl)phenylcarbamoylmethyl]-6,7-dihydro-1H, 5H-pyrido[1,2,3-de]quinoxaline-2,3-dione hydrochloride] | 3.1 | –
2 | Cl.NCc1ccc(NC(=O)C[C@@H]2CCc3cc(Cl)cc4[nH]c(=O)c(=O)n2c34)c(OCC(=O)O)c1 [Example 31, (S)-9-Chloro-5-[p-aminomethyl-o-(carboxymethoxy)phenylcarbamoylmethyl]-6,7-dihydro-1H, 5H-pyrido[1,2,3-de]quinoxaline-2,3-dione hydrochloride] | 1 | –
3 | Cl.NCc1ccc(NC(=O)C[C@@H]2CCc3cc(Br)cc4[nH]c(=O)c(=O)n2c34)c(OCC(=O)O)c1 [Example 35, (S)-9-Bromo-5-[p-aminomethyl-o-(carboxymethoxy)phenylcarbamoylmethyl]6,7-dihydro-1H, 5H-pyrido[1,2,3-de]quinoxaline-2,3-dione hydrochloride] | 2.1 | –
4 | O=C1C[C@@H]2OCC=C3CN4CC[C@]56c7ccccc7N1[C@H]5[C@H]2[C@H]3C[C@H]46 [strychnine] | – | not inhibited
